Data reported in patent publication US20240307409A1, “ARGININE METHYLTRANSFERASE INHIBITOR AND USE THEREOF” (Cytosinlab Therapeutics Co., Ltd., priority 2021, published 2024).

Assays:
PRMT1 = PRMT1 (Homo sapiens, UniProt Q99873); experiment: PRMT1 enzyme activity test; type: biochemical; conditions: 0.5 nM PRMT1, 3H-SAM, peptide
Outline: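 Radiometric methylation assay: 0.5 nM PRMT1 preincubated 15 min at room temperature with compound (10-point 3-fold series, 1% DMSO) in pH 8.0 Tris buffer with Tween-20 and DTT. 0.25 uM ³H-SAM and 0.1 uM biotinylated peptide then reacted 120 min. Product captured on streptavidin FlashPlate and counted; IC50 from four-parameter fit of % inhibition.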

MV-4-11 cells = experiment: MV-4-11 cell proliferation inhibition assay; type: cell-based; conditions: Homo sapiens, MV4-11, 144 h; six-day assay, CellTiter-Glo
Procedure: • A. Purpose: to determine the effects of compounds on Toledo cells through a six-day cell proliferation assay. • B. Reagents and materials: • 1. Cell culture medium: RPMI 1640+10% FBS • 2. 384-well cell culture plate (Corning, item #3764) • 3. 0.4% Taipan Blue Staining Solution (Thermo Fisher, item #T10282) • 4. cell counting plate (Thermo Fisher, item #C10228) • 5. 50 ml reagent reservoir (Corning, item #4870) • 6. 50 ml conical sterile polypropylene centrifuge tube (Thermo Fisher, item #339653) • 7. Automatic cell counter (Thermo Fisher, item #AMQAX1000) • 8. CellTiter-Glo Luminescent Cell Viability Detection Reagent (Promega, item #G7572) • 9. SpectraMax i3x Multi-Mode Enzyme Labeling Instrument (Megaman Molecular Instruments, item #5024062) • C. Experimental method • 1. Resuspending the cells with a pipette. • 2. 0.4% Taipan blue staining solution and Toledo cells were mixed in equal proportion, and the cells were counted using an automatic cell counter. • 3. Toledo cells were diluted to a final concentration of 2000 cells per well and transferred to a 50 ml reagent reservoir. • 4. Diluted Toledo cells were added to a 384-well cell culture plate, 40 ul per well. • 5. The cells were shortly centrifuged and settled. • 6. The cells were incubated in a 37° C., 5% CO2 cell culture incubator. • 7. The substrate in the CellTiter-Glo Luminescent Cell Viability Detection Reagent was mixed with the solution. • 8. After six days, the 384-well cell culture plate was taken from the incubator and 20 ul of configured CellTiter-Glo reagent was added to each well. • 9. 384-well cell culture platewasmixed in an orbital shaker for 30 minutes. • 10. Signal of luminescence was detected with a SpectraMax i3x multi-mode enzyme labeling instrument.
Similar to the Toledo cell proliferation inhibition assay method, the difference was that MV-4-11 cells were used and the cell culture medium was IMDM+10% FBS; in step 3 of the assay method 250 cells per well was used instead;

Sequence of PRMT1 (Q99873 whole entry): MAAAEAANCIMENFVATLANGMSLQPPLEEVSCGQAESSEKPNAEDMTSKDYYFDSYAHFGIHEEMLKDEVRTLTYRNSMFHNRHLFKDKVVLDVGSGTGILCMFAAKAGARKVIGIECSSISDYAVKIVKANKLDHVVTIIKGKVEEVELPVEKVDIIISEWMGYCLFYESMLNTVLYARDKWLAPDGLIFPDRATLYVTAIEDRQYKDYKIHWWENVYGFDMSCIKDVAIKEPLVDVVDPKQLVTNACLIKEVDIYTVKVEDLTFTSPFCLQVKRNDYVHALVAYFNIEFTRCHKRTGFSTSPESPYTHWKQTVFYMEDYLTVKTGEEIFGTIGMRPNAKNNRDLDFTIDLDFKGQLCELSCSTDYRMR

## CNCCN(C)Cc1ccc2[nH]c(C(=O)c3ccccc3)nc2c1C1CCN(c2cccc(C)c2)CC1 [P407]
PRMT1
  IC50: 50 to 500 nM
MV-4-11 cells
  IC50: < 1000 nM

## CNCCN(C)Cc1ccc2[nH]c(N3CCOCC3)nc2c1C1CCN(c2cccc(C)c2)CC1 [P406, N,N′-dimethyl-N′-[[2-morpholin-4-[1-(m-tolyl)-4-piperidinyl]-1H-benzo[d]imidazol-5-yl]methyl]ethane-1,2-diamine]
PRMT1
  IC50: < 50 nM
MV-4-11 cells
  IC50: < 1000 nM

## CNCCN(C)Cc1ccc2nn(C)cc2c1C1CCN(c2cccc(C)c2)CC1 [P401]
PRMT1
  IC50: < 50 nM
MV-4-11 cells
  IC50: < 1000 nM

## CNCCN(C)Cc1ccc2c(c1C1CCN(c3cccc(C)c3)CC1)C(=O)C(=O)N2Cc1ccc(OC)cc1 [P404]
PRMT1
  IC50: 50 to 500 nM
MV-4-11 cells
  IC50: < 1000 nM

## CNCCN(C)Cc1ccc2c(c1C1CCN(c3cccc(C)c3)CC1)C(=O)C(=O)N2 [P405]
PRMT1
  IC50: < 50 nM
MV-4-11 cells
  IC50: < 1000 nM

## CNCCN(C)Cc1ccc2c(c1C1CCN(c3cccc(C)c3)CC1)C(C)(C)C(=O)N2 [P402]
PRMT1
  IC50: 50 to 500 nM
MV-4-11 cells
  IC50: 1000 to 5000 nM

## CNCCN(C)Cc1cnc2[nH]ncc2c1C1CCN(c2cccc(C)c2)CC1 [P409]
PRMT1
  IC50: 50 to 500 nM
MV-4-11 cells
  IC50: < 1000 nM
